Key:
[1] = target: T1, 5-hydroxytryptamine receptor 3A (Homo sapiens, UniProt P46098); test: Displacement of [3H]-GR65630 from human 5-HT3 receptor expressed in HEKT cells after 90 mins by microbeta scintillation counting analysis; assay type: cell-based
T1 sequence (P46098 whole entry): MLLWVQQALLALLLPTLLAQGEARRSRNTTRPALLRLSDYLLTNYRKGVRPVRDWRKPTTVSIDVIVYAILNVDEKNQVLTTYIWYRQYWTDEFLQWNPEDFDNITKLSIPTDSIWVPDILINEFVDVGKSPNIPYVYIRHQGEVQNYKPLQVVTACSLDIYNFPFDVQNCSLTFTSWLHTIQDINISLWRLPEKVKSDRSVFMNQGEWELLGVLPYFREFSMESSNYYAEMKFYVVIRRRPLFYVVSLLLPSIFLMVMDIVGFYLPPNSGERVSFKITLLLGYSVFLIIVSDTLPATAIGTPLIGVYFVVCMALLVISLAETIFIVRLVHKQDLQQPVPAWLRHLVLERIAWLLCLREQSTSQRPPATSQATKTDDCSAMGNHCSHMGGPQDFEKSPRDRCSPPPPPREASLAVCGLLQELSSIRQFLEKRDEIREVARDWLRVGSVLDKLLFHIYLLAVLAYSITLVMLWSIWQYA

[2] = target: T2, 5-hydroxytryptamine receptor 7 (Homo sapiens, UniProt P34969); test: Displacement of [3H]-LSD from human 5-HT7A receptor expressed in HEK cells after 90 mins by microbeta scintillation counting analysis; assay type: cell-based
[3] = target: T3, 5-hydroxytryptamine receptor 5A (Homo sapiens, UniProt P47898); test: Displacement of [3H]-LSD from human 5-HT5A receptor expressed in Flp-In CHO cells after 90 mins by microbeta scintillation counting analysis; assay type: cell-based
[4] = target: T4, 5-hydroxytryptamine receptor 1E (Homo sapiens, UniProt P28566); test: Displacement of [3H]5-HT from human 5-HT1E receptor expressed in HEK cells after 90 mins by microbeta scintillation counting analysis; assay type: cell-based
[5] = target: T5, 5-hydroxytryptamine receptor 6 (Homo sapiens, UniProt P50406); test: Displacement of [3H]-LSD from human 5-HT6 receptor expressed in HEK cells after 90 mins by microbeta scintillation counting analysis; assay type: cell-based
[6] = target: T6, 5-hydroxytryptamine receptor 1D (Homo sapiens, UniProt P28221); test: Displacement of [3H]5-CT from human 5-HT1D receptor expressed in HEKT cells after 90 mins by microbeta scintillation counting analysis; assay type: cell-based
[7] = target: T7, 5-hydroxytryptamine receptor 2C (Homo sapiens, UniProt P28335); test: Displacement of [3H]-Mesulergine from human 5-HT2C receptor expressed in HEKT cells after 90 mins by microbeta scintillation counting analysis; assay type: cell-based
T7 sequence (P28335 whole entry): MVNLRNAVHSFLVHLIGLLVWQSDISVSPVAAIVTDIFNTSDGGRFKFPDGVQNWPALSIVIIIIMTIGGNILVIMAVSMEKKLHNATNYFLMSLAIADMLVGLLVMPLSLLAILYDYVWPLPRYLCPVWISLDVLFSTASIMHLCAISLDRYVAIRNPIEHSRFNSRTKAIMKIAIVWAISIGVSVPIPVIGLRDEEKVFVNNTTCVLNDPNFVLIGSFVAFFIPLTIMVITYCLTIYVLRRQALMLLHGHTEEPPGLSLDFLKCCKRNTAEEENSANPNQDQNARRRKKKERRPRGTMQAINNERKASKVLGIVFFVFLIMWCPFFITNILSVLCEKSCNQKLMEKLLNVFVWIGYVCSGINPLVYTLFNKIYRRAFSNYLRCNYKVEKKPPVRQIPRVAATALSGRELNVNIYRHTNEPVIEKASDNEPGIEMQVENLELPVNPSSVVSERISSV

[8] = target: T8, 5-hydroxytryptamine receptor 2B (Homo sapiens, UniProt P41595); test: Displacement of [3H]-LSD from human 5-HT2B receptor expressed in HEK cells after 90 mins by microbeta scintillation counting analysis; assay type: cell-based
[9] = target: T9, 5-hydroxytryptamine receptor 1A (Homo sapiens, UniProt P08908); test: Antagonist activity at 5-HT1A receptor (unknown origin) by Tango assay; assay type: functional
T9 sequence (P08908 whole entry): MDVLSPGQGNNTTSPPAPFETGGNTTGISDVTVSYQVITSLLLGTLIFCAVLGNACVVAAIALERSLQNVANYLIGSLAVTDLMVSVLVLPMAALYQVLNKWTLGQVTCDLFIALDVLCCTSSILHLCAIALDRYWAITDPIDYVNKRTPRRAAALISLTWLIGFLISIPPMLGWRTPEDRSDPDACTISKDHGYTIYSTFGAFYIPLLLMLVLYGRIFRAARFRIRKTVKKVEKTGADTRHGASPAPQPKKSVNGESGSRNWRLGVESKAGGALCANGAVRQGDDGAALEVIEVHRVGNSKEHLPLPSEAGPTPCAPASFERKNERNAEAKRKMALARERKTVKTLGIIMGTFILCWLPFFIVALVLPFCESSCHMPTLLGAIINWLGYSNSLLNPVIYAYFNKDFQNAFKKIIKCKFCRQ

[10] = target: T8, 5-hydroxytryptamine receptor 2B; test: Antagonist activity at 5-HT2B receptor (unknown origin) by calcium release assay; assay type: functional
[11] = target: T7, 5-hydroxytryptamine receptor 2C; test: Binding affinity to 5-HT2C receptor (unknown origin) by radioligand binding assay
[12] = target: T10, 5-hydroxytryptamine receptor 2A (Homo sapiens, UniProt P28223); test: Binding affinity to 5-HT2A receptor (unknown origin) by radioligand binding assay
[13] = target: T1, 5-hydroxytryptamine receptor 3A; test: Binding affinity to 5-HT3 receptor (unknown origin) by radioligand binding assay
[14] = target: T6, 5-hydroxytryptamine receptor 1D; test: Binding affinity to 5-HT1D receptor (unknown origin) by radioligand binding assay
[15] = target: T5, 5-hydroxytryptamine receptor 6; test: Binding affinity to 5-HT6 receptor (unknown origin) by radioligand binding assay
[16] = target: T2, 5-hydroxytryptamine receptor 7; test: Binding affinity to 5-HT7A receptor (unknown origin) by radioligand binding assay
[17] = target: T8, 5-hydroxytryptamine receptor 2B; test: Displacement of [3H]-LSD from human 5-HT2B receptor expressed in baculovirus infected Sf9 cells
[18] = target: T11, 5-hydroxytryptamine receptor 1B (Homo sapiens, UniProt P28222); test: Displacement of [3H]-LSD from human 5-HT1B receptor expressed in baculovirus infected Sf9 cells
[19] = target: T3, 5-hydroxytryptamine receptor 5A; test: Binding affinity to 5-HT5A receptor (unknown origin) by radioligand binding assay
[20] = target: T4, 5-hydroxytryptamine receptor 1E; test: Binding affinity to 5-HT1E receptor (unknown origin) by radioligand binding assay
[21] = target: T11, 5-hydroxytryptamine receptor 1B; test: Displacement of [3H]5-CT from human 5-HT1B receptor expressed in HEK cells after 90 mins by microbeta scintillation counting analysis; assay type: cell-based
[22] = target: T10, 5-hydroxytryptamine receptor 2A; test: Displacement of [3H]Ketanserin from 5-HT2A (unknown origin) receptor after 90 mins by microbeta scintillation counting analysis
[23] = target: T2, 5-hydroxytryptamine receptor 7; test: Antagonist activity at 5-HT7A receptor (unknown origin) by Tango assay

T3 sequence (P47898 whole entry): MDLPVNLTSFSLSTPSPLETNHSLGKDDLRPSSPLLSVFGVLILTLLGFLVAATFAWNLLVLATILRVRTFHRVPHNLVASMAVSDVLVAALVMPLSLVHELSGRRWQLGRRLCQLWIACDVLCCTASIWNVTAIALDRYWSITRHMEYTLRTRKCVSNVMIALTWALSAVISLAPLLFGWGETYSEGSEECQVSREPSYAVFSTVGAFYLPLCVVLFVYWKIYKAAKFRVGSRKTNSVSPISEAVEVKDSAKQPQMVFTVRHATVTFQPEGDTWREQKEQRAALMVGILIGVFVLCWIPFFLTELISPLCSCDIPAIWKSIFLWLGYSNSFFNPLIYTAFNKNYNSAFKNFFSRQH
T8 sequence (P41595 whole entry): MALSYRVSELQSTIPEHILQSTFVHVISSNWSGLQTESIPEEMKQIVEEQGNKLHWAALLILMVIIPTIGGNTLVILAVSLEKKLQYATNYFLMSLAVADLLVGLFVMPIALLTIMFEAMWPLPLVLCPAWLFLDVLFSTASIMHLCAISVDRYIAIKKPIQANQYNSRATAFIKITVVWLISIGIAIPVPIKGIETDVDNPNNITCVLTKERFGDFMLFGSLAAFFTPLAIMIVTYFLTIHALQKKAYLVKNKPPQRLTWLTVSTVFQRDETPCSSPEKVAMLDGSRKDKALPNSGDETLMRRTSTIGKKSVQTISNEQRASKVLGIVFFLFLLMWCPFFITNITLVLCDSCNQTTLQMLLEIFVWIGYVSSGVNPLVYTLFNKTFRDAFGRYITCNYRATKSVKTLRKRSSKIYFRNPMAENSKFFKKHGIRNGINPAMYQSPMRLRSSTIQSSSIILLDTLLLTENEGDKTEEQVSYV
T2 sequence (P34969 whole entry): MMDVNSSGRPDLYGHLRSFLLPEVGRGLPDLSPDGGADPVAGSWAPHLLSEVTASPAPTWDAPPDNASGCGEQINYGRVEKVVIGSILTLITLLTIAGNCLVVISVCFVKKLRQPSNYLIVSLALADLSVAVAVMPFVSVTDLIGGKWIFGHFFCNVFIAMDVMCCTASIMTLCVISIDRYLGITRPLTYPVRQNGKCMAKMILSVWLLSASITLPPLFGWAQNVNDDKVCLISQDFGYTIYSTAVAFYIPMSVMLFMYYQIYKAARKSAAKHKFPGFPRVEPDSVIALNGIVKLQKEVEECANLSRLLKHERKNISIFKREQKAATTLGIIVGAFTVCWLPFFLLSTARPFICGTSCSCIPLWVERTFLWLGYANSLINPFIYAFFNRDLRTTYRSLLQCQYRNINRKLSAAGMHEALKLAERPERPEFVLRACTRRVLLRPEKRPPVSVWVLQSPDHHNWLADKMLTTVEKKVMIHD
T10 sequence (P28223 whole entry): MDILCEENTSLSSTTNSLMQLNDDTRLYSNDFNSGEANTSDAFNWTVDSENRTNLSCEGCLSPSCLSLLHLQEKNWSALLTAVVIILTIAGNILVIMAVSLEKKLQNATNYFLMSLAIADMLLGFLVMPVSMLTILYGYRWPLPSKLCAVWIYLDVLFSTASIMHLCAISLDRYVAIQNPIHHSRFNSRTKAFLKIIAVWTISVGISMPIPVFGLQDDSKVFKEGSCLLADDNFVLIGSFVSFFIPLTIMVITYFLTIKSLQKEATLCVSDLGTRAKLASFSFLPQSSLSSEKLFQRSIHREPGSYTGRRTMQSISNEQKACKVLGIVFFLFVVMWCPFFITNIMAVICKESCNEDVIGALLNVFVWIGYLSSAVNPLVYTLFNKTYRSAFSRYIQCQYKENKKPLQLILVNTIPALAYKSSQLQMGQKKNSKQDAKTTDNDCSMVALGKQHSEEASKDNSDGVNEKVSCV
T4 sequence (P28566 whole entry): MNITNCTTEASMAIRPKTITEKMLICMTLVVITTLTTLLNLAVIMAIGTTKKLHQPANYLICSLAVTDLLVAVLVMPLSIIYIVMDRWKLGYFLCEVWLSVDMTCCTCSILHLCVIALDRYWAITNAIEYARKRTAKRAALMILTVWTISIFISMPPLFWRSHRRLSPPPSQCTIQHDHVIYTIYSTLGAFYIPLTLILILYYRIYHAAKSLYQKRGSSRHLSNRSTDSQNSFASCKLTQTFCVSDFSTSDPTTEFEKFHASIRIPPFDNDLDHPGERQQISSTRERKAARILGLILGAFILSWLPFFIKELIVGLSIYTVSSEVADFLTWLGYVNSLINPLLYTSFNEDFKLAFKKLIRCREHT
T5 sequence (P50406 whole entry): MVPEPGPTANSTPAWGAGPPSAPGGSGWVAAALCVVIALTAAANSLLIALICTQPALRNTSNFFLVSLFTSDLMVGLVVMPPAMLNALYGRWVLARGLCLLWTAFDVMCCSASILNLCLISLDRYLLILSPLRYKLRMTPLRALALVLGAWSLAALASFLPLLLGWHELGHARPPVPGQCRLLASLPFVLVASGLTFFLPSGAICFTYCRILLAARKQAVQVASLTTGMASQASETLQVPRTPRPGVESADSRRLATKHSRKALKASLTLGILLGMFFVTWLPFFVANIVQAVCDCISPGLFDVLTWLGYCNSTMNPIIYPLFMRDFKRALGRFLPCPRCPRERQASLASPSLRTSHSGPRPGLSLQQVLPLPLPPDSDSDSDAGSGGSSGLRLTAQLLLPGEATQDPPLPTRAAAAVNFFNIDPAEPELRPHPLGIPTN
T6 sequence (P28221 whole entry): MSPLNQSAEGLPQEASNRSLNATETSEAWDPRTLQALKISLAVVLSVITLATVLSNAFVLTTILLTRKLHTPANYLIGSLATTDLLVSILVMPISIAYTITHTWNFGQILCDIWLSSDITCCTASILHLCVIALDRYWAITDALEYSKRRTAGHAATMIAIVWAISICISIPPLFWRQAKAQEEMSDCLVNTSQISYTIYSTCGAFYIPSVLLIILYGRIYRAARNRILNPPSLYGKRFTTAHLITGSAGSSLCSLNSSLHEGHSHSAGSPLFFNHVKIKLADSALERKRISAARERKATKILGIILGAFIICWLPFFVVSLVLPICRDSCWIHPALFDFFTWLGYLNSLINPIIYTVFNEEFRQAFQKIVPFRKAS
T11 sequence (P28222 whole entry): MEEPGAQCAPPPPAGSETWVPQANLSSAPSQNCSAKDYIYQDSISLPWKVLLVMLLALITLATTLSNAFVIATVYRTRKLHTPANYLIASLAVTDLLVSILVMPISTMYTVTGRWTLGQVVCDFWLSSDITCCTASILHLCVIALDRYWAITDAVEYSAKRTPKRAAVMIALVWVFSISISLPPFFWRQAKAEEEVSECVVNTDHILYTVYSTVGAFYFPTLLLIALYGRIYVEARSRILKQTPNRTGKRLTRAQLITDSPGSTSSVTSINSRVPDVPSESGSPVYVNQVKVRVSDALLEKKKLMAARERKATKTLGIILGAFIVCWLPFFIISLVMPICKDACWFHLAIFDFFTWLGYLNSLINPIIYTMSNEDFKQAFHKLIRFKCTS

Row | Compound | Ki [1] [µM] | Ki [2] [µM] | Ki [3] [µM] | Ki [4] [µM] | Ki [5] [µM] | Ki [6] [µM] | Ki [7] [µM] | Ki [8] [µM] | Ki [21] [µM] | Ki [22] [µM] | other results
1 | COC(=O)[C@H](Cc1cnc[nH]1)NC(=O)[C@@H]1N=C(c2ccccc2O)S[C@@H]1C | 3.1 | > 10 | > 10 | 4.6 | > 10 | 0.53 | 0.88 | 1.4 | – | – | IC50 [9]: > 10 µM; IC50 [10]: > 10 µM
2 | O=Cc1csc(-c2ccccc2O)n1 | – | – | – | – | – | – | – | – | – | – | Ki [11]: > 10 µM; Ki [12]: > 10 µM; Ki [13]: > 10 µM; Ki [14]: > 10 µM; Ki [15]: > 10 µM; Ki [16]: > 10 µM; Ki [17]: 1.5 µM; Ki [18]: > 10 µM; Ki [19]: > 10 µM; Ki [20]: > 10 µM
3 | C[C@H]1SC(c2ccccc2O)=N[C@H]1CO | – | – | – | – | – | – | – | 0.4 | – | – | –
4 | Oc1ccccc1C1=NC(Cc2c[nH]cn2)CS1 (racemic) | 0.95 | 7.4 | > 10 | > 10 | > 10 | 1.9 | > 10 | 0.1 | > 10 | > 10 | –
5 | Oc1ccccc1C1=N[C@@H]2CCC[C@@H]2S1 (racemic) | > 10 | > 10 | > 10 | > 10 | > 10 | > 10 | > 10 | > 10 | > 10 | > 10 | –
6 | C[C@H]1SC(c2ccccc2O)=N[C@@H]1CO (racemic) | – | – | – | – | – | – | 2.2 | 0.62 | – | – | –
7 | NC(=O)C1CSC(c2ccccc2O)=N1 (racemic) [PULICATINS G] | – | – | – | – | – | – | – | – | – | – | Ki [11]: > 10 µM; Ki [12]: > 10 µM; Ki [13]: > 10 µM; Ki [14]: > 10 µM; Ki [15]: > 10 µM; Ki [16]: > 10 µM; Ki [18]: > 10 µM; Ki [19]: > 10 µM; Ki [20]: > 10 µM
8 | C[C@@H]1SC(c2c[nH]c3ccccc23)=N[C@H]1CO (relative stereo) | 2.8 | > 10 | > 10 | > 10 | > 10 | 2.7 | 5.4 | 2.4 | > 10 | > 10 | –
9 | C[C@@H]1SC(c2ccccc2)=N[C@@H]1Cc1c[nH]cn1 (relative stereo) | 0.077 | 3.3 | 6.8 | 4 | > 10 | 1.6 | 0.75 | 0.69 | – | – | IC50 [23]: > 10 µM; IC50 [9]: > 10 µM; IC50 [10]: > 10 µM
10 | C[C@@H]1SC(c2ccccc2)=N[C@H]1CO (relative stereo) | 6.7 | > 10 | > 10 | > 10 | > 10 | 5.3 | 35 | 3 | > 10 | > 10 | –
11 | C[C@@H]1SC(c2cccs2)=N[C@H]1CO (relative stereo) | > 10 | > 10 | > 10 | > 10 | > 10 | > 10 | 2.2 | 1.4 | > 10 | > 10 | –
12 | C[C@H]1SC(c2ccc(-c3ccccc3)cc2)=N[C@H]1Cc1c[nH]cn1 (relative stereo) | – | – | – | – | – | – | 2.3 | 1.4 | – | 0.31 | –
13 | C[C@@H]1SC(c2ccc(-c3ccccc3)cc2)=N[C@H]1Cc1c[nH]cn1 (relative stereo) | – | – | – | – | – | – | 1.4 | 1.1 | – | 0.24 | –
14 | C[C@@H]1SC(c2cc3ccccc3cc2O)=N[C@H]1CO (relative stereo) | 1.8 | > 10 | > 10 | > 10 | > 10 | > 10 | 2.4 | 0.81 | > 10 | > 10 | –
15 | C[C@@H]1SC(c2ccco2)=N[C@H]1CO (relative stereo) | > 10 | > 10 | > 10 | > 10 | > 10 | > 10 | > 10 | > 10 | > 10 | > 10 | –
16 | CNc1ccccc1C1=N[C@@H](CO)[C@H](C)S1 (relative stereo) | 3.6 | > 10 | > 10 | > 10 | > 10 | 8.5 | 1.9 | 1.2 | > 10 | > 10 | –
17 | CCCCCCCCOc1ccc(C2=N[C@@H](CO)[C@H](C)S2)cc1 (relative stereo) | > 10 | > 10 | > 10 | > 10 | > 10 | > 10 | 3.6 | > 10 | > 10 | 6.9 | IC50 [9]: > 10 µM
18 | C[C@@H]1SC(c2ccsc2)=N[C@H]1CO (relative stereo) | 6.7 | > 10 | 8.2 | > 10 | > 10 | 8.6 | > 10 | 1.5 | > 10 | > 10 | –
19 | OC[C@@H]1CSC(c2ccccc2O)=N1 [AERUGINE] | – | – | – | – | – | – | – | – | – | – | Ki [11]: > 10 µM; Ki [12]: > 10 µM; Ki [13]: > 10 µM; Ki [14]: > 10 µM; Ki [15]: > 10 µM; Ki [16]: > 10 µM; Ki [18]: > 10 µM; Ki [19]: > 10 µM; Ki [20]: > 10 µM
20 | NC(=O)c1csc(-c2ccccc2O)n1 [PULICATINS F] | – | – | – | – | – | – | – | – | – | – | Ki [11]: > 10 µM; Ki [12]: > 10 µM; Ki [13]: > 10 µM; Ki [14]: > 10 µM; Ki [15]: > 10 µM; Ki [16]: > 10 µM; Ki [18]: > 10 µM; Ki [19]: > 10 µM; Ki [20]: > 10 µM
21 | C[C@@H]1SC(c2ccccc2O)=N[C@H]1[C@@H]1SC[C@](C)(C(=O)O)N1C [WATASEMYCINS A] | – | – | – | – | – | – | – | – | – | – | Ki [11]: > 10 µM; Ki [12]: > 10 µM; Ki [13]: > 10 µM; Ki [14]: > 10 µM; Ki [15]: > 10 µM; Ki [16]: > 10 µM; Ki [17]: 4.7 µM; Ki [18]: > 10 µM; Ki [19]: > 10 µM; Ki [20]: > 10 µM
22 | C[C@@H]1SC(c2ccccc2O)=N[C@H]1[C@H]1SC[C@](C)(C(=O)O)N1C [WATASEMYCINS B] | – | – | – | – | – | – | – | – | – | – | Ki [11]: > 10 µM; Ki [12]: > 10 µM; Ki [13]: > 10 µM; Ki [14]: > 10 µM; Ki [15]: > 10 µM; Ki [16]: > 10 µM; Ki [17]: 3.9 µM; Ki [18]: > 10 µM; Ki [19]: > 10 µM; Ki [20]: > 10 µM

Reference: ChEMBL document CHEMBL4190286, “Modulating the Serotonin Receptor Spectrum of Pulicatin Natural Products” (J Nat Prod, 2017)
